Reference: PubChem BioAssay (NCI)
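Protocol summary: plate cells (96-well), add compound at 5 concentrations, incubate 48 h, interpolate endpoints linearly. TGI: concentration producing complete growth inhibition.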

Tests used:
Assay in all cases: NCI-60 cell line screen, 48 h
[1] = system: M14 melanoma
[2] = system: UO-31 renal
[3] = system: SR leukemia
[4] = system: K-562 leukemia
[5] = system: TK-10 renal
[6] = system: SW-620 colon
[7] = system: RXF 393 renal
[8] = system: COLO 205 colon
[9] = system: 786-0 renal
[10] = system: SF-539 CNS
[11] = system: MALME-3M melanoma
[12] = system: RPMI-8226 leukemia
[13] = system: A549 NSCLC

Row | Structure (SMILES) | TGI [1] | TGI [2] | TGI [3] | TGI [4] | TGI [5] | TGI [6] | TGI [7] | TGI [8] | TGI [9] | TGI [10] | TGI [11] | TGI [12] | TGI [13]
1 | O=C(NNC(=S)NC1CCCCC1)C12CC3CC(CC(C3)C1)C2 | > 100 µM | > 100 µM | > 100 µM | > 100 µM | > 100 µM | > 100 µM | > 100 µM | > 100 µM | > 100 µM | > 100 µM | > 100 µM | > 100 µM | > 100 µM
2 | C=C1C(=O)O[C@H]2C1C[C@@H](OC(C)=O)/C(C)=C/CC[C@@]1(C)O[C@H]21 (some centres not stated) | 16.1 µM | 17 µM | 20.1 µM | 39.5 µM | 17.4 µM | 20.4 µM | 20.2 µM | 14.2 µM | 23.9 µM | – | 18.7 µM | 13.6 µM | > 100 µM
3 | CCOC(=O)c1nc2cc(C(F)(F)F)ccc2nc1Nc1ccc(C(=O)OC)s1 | > 100 µM | > 100 µM | 39.6 µM | > 100 µM | > 100 µM | > 100 µM | 50.8 µM | 44.5 µM | 84.8 µM | – | > 100 µM | > 100 µM | > 100 µM
4 | Cc1cc(=O)oc2cc(OCC(O)COC(C)C)ccc12 (configuration not stated) | > 100 µM | > 100 µM | > 100 µM | > 100 µM | > 100 µM | > 100 µM | – | > 100 µM | > 100 µM | – | > 100 µM | > 100 µM | > 100 µM
5 | O=C1CCc2ccc(O)c(c2)Oc2ccc(cc2)C(Sc2ccccc2)CCO1 (configuration not stated) | 32.1 µM | 33.4 µM | 76 µM | 40 µM | 31.6 µM | 34.9 µM | 35.4 µM | 33.1 µM | 29.6 µM | 31.4 µM | 27.9 µM | 36.4 µM | 59 µM
6 | COc1ccc2c(c1)/C(=C\c1c(Cl)[nH]c3ccccc13)C(=O)N2 | 16.2 µM | 20.2 µM | 8.25 µM | 12.2 µM | 23 µM | 13.4 µM | 13.4 µM | 6.6 µM | 17 µM | 12.5 µM | 19.2 µM | 16.3 µM | 19 µM
7 | CC(C)CC(N)C(=O)Nc1ccc2ccccc2c1 (configuration not stated) | > 100 µM | > 100 µM | > 100 µM | > 100 µM | > 100 µM | > 100 µM | > 100 µM | > 100 µM | > 100 µM | > 100 µM | > 100 µM | > 100 µM | > 100 µM
8 | COC(=O)c1cc(NC(=O)Cc2c[nH]c3ccccc23)cn1C | > 100 µM | > 100 µM | > 100 µM | > 100 µM | > 100 µM | > 100 µM | > 100 µM | > 100 µM | > 100 µM | > 100 µM | > 100 µM | 63.9 µM | > 100 µM
9 | CCCCCc1c(CCCC)c(=O)[nH]c2nc(NC(=O)CCCC)ccc12 | > 100 µM | > 100 µM | > 100 µM | > 100 µM | > 100 µM | > 100 µM | > 100 µM | > 100 µM | > 100 µM | > 100 µM | > 100 µM | > 100 µM | > 100 µM
10 | O=C1CC(CC(=O)c2ccc(Br)cc2)C(=O)/C1=C(/O)c1ccc(Br)cc1 (configuration not stated) | > 100 µM | > 100 µM | > 100 µM | > 100 µM | > 100 µM | > 100 µM | > 100 µM | > 100 µM | > 100 µM | > 100 µM | > 100 µM | > 100 µM | > 100 µM
11 | NC1CCC(N(CC(=O)O)CC(=O)O)C(N(CC(=O)O)CC(=O)O)C1 (configuration not stated) | – | > 100 µM | > 100 µM | > 100 µM | > 100 µM | > 100 µM | > 100 µM | > 100 µM | – | > 100 µM | > 100 µM | > 100 µM | > 100 µM
12 | O=C(/C=C/c1ccccc1)Nc1ccccc1SCCCCl | > 100 µM | 91.6 µM | 64.7 µM | > 100 µM | > 100 µM | > 62.4 µM | 84.2 µM | 48.5 µM | > 100 µM | 39.8 µM | > 100 µM | > 100 µM | > 100 µM
13 | CC(=O)NC(NCCN)(c1ccccc1)c1ccccc1 | > 100 µM | > 100 µM | > 100 µM | > 100 µM | > 100 µM | > 100 µM | > 100 µM | > 100 µM | > 100 µM | > 100 µM | > 100 µM | > 100 µM | > 100 µM
14 | Clc1ccc(CCN[C@H]2CCCC[C@H]2N2CCCC2)cc1Cl | 30.3 µM | 31.2 µM | > 100 µM | > 100 µM | 22.9 µM | > 100 µM | – | 29.8 µM | 77 µM | 75.3 µM | 30.3 µM | 97.1 µM | 89.6 µM
15 | Cc1ccc(C)n2c1nc1ccccc12 | > 100 µM | > 100 µM | > 100 µM | > 100 µM | > 100 µM | > 100 µM | > 100 µM | > 100 µM | > 100 µM | > 100 µM | > 100 µM | > 100 µM | > 100 µM
16 | Fc1ccc2c3c([nH]c2c1)CCN(Cc1ccccc1)C3 | 34.5 µM | 25.6 µM | 40.7 µM | 41 µM | – | 40 µM | 31 µM | 39.4 µM | 30 µM | 39 µM | 35 µM | 77.2 µM | 45.5 µM
17 | C=CC1CN(C(=O)OCC)N(C(=O)OCC)C1CCc1ccccc1 (configuration not stated) | > 100 µM | > 100 µM | > 100 µM | > 100 µM | > 100 µM | – | – | > 100 µM | > 100 µM | – | > 100 µM | > 100 µM | > 100 µM
18 | COc1ccc(OC)c2c1C=CC(Br)=CC2 | 0.822 µM | > 1 µM | 0.488 µM | 0.419 µM | > 1 µM | > 1 µM | – | > 1 µM | 0.544 µM | > 1 µM | 0.312 µM | 0.387 µM | > 1 µM
